We go through 12 molecules from patent US12533362B2, “Methods for treating diseases associated with ciliopathies” (ALEXION PHARMACEUTICALS, INC., priority 2017, dated 2026).

Data set [1] relates to NPHP patient-derived cells. Put plainly: automated cilia-based ciliogenesis assay in NPHP patient-derived cells. Format: cell-based, human. The conditions noted are these: for restoration of ciliogenesis at the highest concentration: 40 μM dinoprostone and 20 μM dmPGE2, may be due to cytotoxicity; for ciliogenesis restorative effect: FIG. 11A; for effect on ciliogenesis (percentage of ciliated cells) as compared with DMSO: drug screening, various tested concentrations, FIG. 5 / FIG. 6. The text has this: (§1) To identify compounds for treating diseases associated with ciliopathies such as, for example, NPHP, NPHP patient-derived cells were obtained and cell lines were established. Briefly, peeled renal epithelial cells, which are mostly proximal tubule cells (tbc) recovered from urine of NPHP1-deficient patients, were immortalized by retroviral gene transfer of SV40 T antigen. Cells were fixed and fluorescence-labeled with Hoechst (for nuclei staining), anti-γ-tubulin antibody (for basal bodies staining), and anti-ARL13B antibody (for cilia staining) for detection using immunofluorescence microscopy.
(§2) Briefly, NPHP patient-derived cells and control cells were cultured in complete media, at 39C (non-permissive temperature for SV40 expression), followed by automatic cilia analysis using immunofluorescence microscopy to measure ciliogenesis, e.g., in terms of % cilia. A spinning disk platform may be used for drug screening (FIG. 5, A-J) and ciliogenesis analysis of G3 multi-OMICs dataset (FIG. 29, A-E).
The cilia-based assay described above may be used to identify compounds that restore ciliogenesis. […] Automated random acquisition of 35 images per well may be performed, for example. Each image may have z-stack of 10 images taken at <1 μm intervals.

Data set [2] has as its system control normal epithelial cells. Put plainly: automated cilia-based ciliogenesis assay in control normal epithelial cells. The settings on record: control normal cells, FIG. 11A. Format: cell-based, human.
Text: as §1, §2
The cilia-based assay described above may be used to identify compounds that restore ciliogenesis. […] Automated random acquisition of 35 images per well may be performed, for example. Each image may have z-stack of 10 images taken at <1 μm intervals. Consecutive imaging of nucleus (Hoechst at 461 nm), basal body (γ-tubulin at 555 nm) and cilia (ARL13b at 647 nm) may be obtained.

In another data set the test system is control cells. Put plainly: exogenous PGE2 effect on cilia in control cells. It is filed as cell-based. The conditions noted are these: addition of exogenous PGE2, FIG. 12.
The test system of the next data set is zebrafish NPHP4 MO. Put plainly: zebrafish NPHP4 morpholino (MO) model. It is filed as in vivo. The method, then:
Briefly, wild-type Tg(wt1b:GFP) transgenic zebrafish embryos were injected with morpholino (e.g., nphp4 ATG MO) at one-cell stage. At 8 hours post-fertilization (hpf), injected embryos were treated with drug or vehicle in PTU-egg water (1 mL in 12-well plates). At 24 hpf, drug treatment was renewed, and pronase was added at 36 hpf for chorion removal.

A further data set deals with EP4 receptor (Homo sapiens, UniProt P35408). The settings on record: cited from earlier work.
For the next data set, the system named is Nphp1−/− mice. Put plainly: retinal degeneration in Nphp1−/− mouse model. Format: in vivo. On the procedure: Homozygous deletion of NPHP1 is the most common cause of juvenile nephronophthisis 1. Homozygous or compound heterozygous mutations in NPHP1 are also associated with, for example, Joubert syndrome 4 (brain abnormalities) and Senior-Løken syndrome 1 (retinopathy). NPHP1 KO animals were generated to test whether taprenepag can be used to treat these diseases. To establish a CRISPR/Cas9-engineered Nphp1^−/− mouse model, single guide RNAs were injected in C57BL/6J embryos, and generated a 76 bp deletion encompassing the ATG in exon 1 of Nphp1. To characterize the natural history of Nphp1^−/− mouse model, histochemical staining of kidney and retina sections was performed from Nphp1^+/+ and Nphp1^−/− mice.
To evaluate the retinal degeneration, a semi-automated tool was developed to provide detection and quantitative thickness measurements of each retinal layers at five distant plans manually marked on the retinal section (FIG. 38B). Semi-automated quantification analysis confirms a clear decrease in thickness of photoreceptors layers ONL, IS and OS (FIG. 38C).
To assess the effect of Nphp1 deletion on the structural organization of photoreceptors in this model, immunohistochemistry (IH) analysis was performed on retina sections from Nphp1^+/+ and Nphp1^−/− mice (FIGS. 39A and B). Tissues were fixed and fluorescence-labeled with DAPI (for nuclei staining), anti-rhodopsin antibody (for OS staining), and anti-Cep290 antibody (for connecting cilia staining) or PNA (for OS and IS staining), detected using immunofluorescence microscopy.
To assess the effect of Nphp1 deletion on the functionality of photoreceptors, electroretinogram (ERG) was performed on Nphp1^+/+ and Nphp1^−/− mice, under light stimuli of different intensities (FIGS. 40A-C). FIGS. 40A and B show ERG a- and b-waves recorded from the same animals at P21, for a given light intensity. In contrast with Nphp1^+/+ mice, Nphp1^−/− mice display drastically lower ERG amplitudes at a given intensity of light stimulus. […]

A short description of data set [3]: pharmacokinetics study in wild type mice. The conditions noted are these: intraperitoneal; taprenepag isopropyl 1 mg/kg or 8 mg/kg, taprenepag 8 mg/kg; different time points.
Description: After intraperitoneal injections of taprenepag isopropyl (1 mg/kg or 8 mg/kg) or taprenepag (8 mg/kg), the concentrations of these compounds in various organs were determined at different time points.
The mark [4] stands for this setting: meta-analysis, multiple NPHP patient-derived cell lines.

The structures appear in SMILES notation. pEC50: −log10 of the molar value.

Sequence of EP4 receptor (P35408 whole entry): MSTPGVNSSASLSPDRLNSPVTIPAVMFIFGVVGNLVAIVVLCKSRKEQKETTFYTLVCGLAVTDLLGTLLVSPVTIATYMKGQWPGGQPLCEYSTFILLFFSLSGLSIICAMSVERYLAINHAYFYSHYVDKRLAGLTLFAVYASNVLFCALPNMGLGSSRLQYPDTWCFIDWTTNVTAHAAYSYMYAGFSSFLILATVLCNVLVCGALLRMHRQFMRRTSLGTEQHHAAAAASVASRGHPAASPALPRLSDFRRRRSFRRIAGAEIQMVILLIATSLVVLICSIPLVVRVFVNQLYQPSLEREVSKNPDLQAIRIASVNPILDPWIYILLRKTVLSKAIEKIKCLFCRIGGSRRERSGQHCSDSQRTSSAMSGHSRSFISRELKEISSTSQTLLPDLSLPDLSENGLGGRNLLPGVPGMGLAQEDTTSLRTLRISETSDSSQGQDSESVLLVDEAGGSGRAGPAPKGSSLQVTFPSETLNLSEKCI

On to `CCCCC(C)(C)[C@H](O)/C=C/[C@H]1[C@H](O)CC(=O)[C@@H]1C/C=C\CCCC(=O)O` [dmPGE2, 16,16-dimethyl-PGE2], for which, in data set [1], the “restoration of ciliogenesis at the highest concentration” value is “slight decrease in restoration of ciliogenesis” and the ciliogenesis restorative effect entry was “ciliogenesis restorative effects similar to that of alprostadil”. Besides, the effect on ciliogenesis result in data set [2] is reported as “no significant effect was observed”.

In the case of `CCCCC[C@H](O)/C=C/[C@H]1[C@H](O)CC(=O)[C@@H]1C/C=C\CCCC(=O)O` [dinoprostone, prostaglandin E2], in data set [1], the “restoration of ciliogenesis at the highest concentration” value is reported as “slight decrease in restoration of ciliogenesis” and the ciliogenesis restorative effect entry is “ciliogenesis restorative effects similar to that of alprostadil”. Also, the effect on ciliogenesis entry in data set [2] was “no significant effect was observed”. Further, the “cilia length and percentages of ciliated cells” value with control cells was “increased both cilia length and percentages of ciliated cells”. In the data set with zebrafish NPHP4 MO (50 μM vs DMSO, p<0.008 Fischer's exact test), the “% severe, mild and normal pronephric cysts” value was “significantly reduced % severe and mild pronephric cysts and increased % normal pronephric cysts”. For the same molecule, the “% normal body axis curvature” value with zebrafish NPHP4 MO (50 μM vs DMSO, p=0.0066 Fischer's exact test) is given as “significantly increases % normal body axis curvature”. The dorsal curvature entry with zebrafish NPHP4 MO (50 μM vs DMSO, p=0.0577 t-test) is on record as “did not significantly affect dorsal curvature”.

In the case of `CC(=O)O[C@H]1C(=O)[C@@]2(C)[C@H]([C@H](OC(=O)c3ccccc3)[C@]3(O)C[C@H](OC(=O)[C@H](O)[C@@H](NC(=O)c4ccccc4)c4ccccc4)C(C)=C1C3(C)C)[C@]1(OC(C)=O)CO[C@@H]1C[C@@H]2O` [paclitaxel], the “effect on ciliogenesis (percentage of ciliated cells) as compared with DMSO” value in data set [1] was “did not have a significant effect on ciliogenesis”.

For the molecule `COc1ccc(CCN(C)CCCC(C#N)(c2ccc(OC)c(OC)c2)C(C)C)cc1OC` (stereo not drawn) [verapamil], the “effect on ciliogenesis (percentage of ciliated cells) as compared with DMSO” value in data set [1] is “did not have a significant effect on ciliogenesis”.

Take `CN1[C@@H]2CC[C@H]1C[C@@H](OC(=O)c1c[nH]c3ccccc13)C2` [tropisetron]: in data set [1], the “effect on ciliogenesis (percentage of ciliated cells) as compared with DMSO” value is recorded as “did not have a significant effect on ciliogenesis”.

`O=C1c2c(O)ccc(O)c2C(=O)c2c(NCCNCCO)ccc(NCCNCCO)c21` [mitoxantrone]: the “effect on ciliogenesis (percentage of ciliated cells) as compared with DMSO” value in data set [1] is given as “did not have a significant effect on ciliogenesis”.

In the case of `COc1ccc(C2CC(c3ccccc3)=NN2c2ccc(S(N)(=O)=O)cc2)cc1` (stereo not drawn) [ML-141], the “effect on ciliogenesis (percentage of ciliated cells) as compared with DMSO” value in data set [1] is on record as “did not have a significant effect on ciliogenesis”.

On to `Cc1cccc([C@@H](C)[C@H](O)/C=C/[C@@H]2[C@@H]3[C@H](C[C@H]2O)O/C(=C\CCCc2nnn[nH]2)C3(F)F)c1` [KAG-308], for which, at EP4 receptor, the “EP4 agonist potency” value is given as “low nanomolar EP4-agonist”.

Take `O=C(O)COc1cccc(CN(Cc2ccc(-n3cccn3)cc2)S(=O)(=O)c2cccnc2)c1` [CP-544326, taprenepag]: in data set [1] (FIG. 16B), the “ciliogenesis, dose response compared to DMSO” value is “restores ciliogenesis in a dose-dependent manner”. For the same molecule, the “ciliogenesis as compared with DMSO” value in data set [1] (cell lines 1-09-P, 1-06-P1 and 1-06-P2 derived from NPHP1(del) patients, FIG. 17C) is “increases ciliogenesis in multiple cell lines”. In addition, in data set [1] (compared with alprostadil, FIG. 16A), the “ciliogenesis, meta-analysis” value is on record as “restores ciliogenesis to a similar level as alprostadil”. In data set [1] (setting [4]), the “linear regression pooled slope value of effect on ciliogenesis” value was 1.36 and the “linear regression range of slope values of effect on ciliogenesis” value is listed as 1.245 to 1.532. In data set [1] (semi-log representation of ciliogenesis titration, FIG. 16C, read-out: EC50 for EP2 from CP-544326 titration), the pEC50 was 7.96. The “% severe, mild and normal pronephric cysts” value in the data set on zebrafish NPHP4 MO (100 nM vs DMSO, p<0.01 Fischer's exact test) is “significantly reduces % severe pronephric cysts and increases % mild and normal pronephric cysts”. For the same molecule, in the data set on Nphp1−/− mice (18 mg/kg i.p. every 3 or 4 days from P6 until P21, vs vehicle, p<0.05 Mann-Whitney test), the “ONL/OPL retina layers thicknesses ratio” value is recorded as “significantly prevents the decrease of ONL/OPL ratio”. The “rhodopsin mislocalization (Mean Green intensity in ONL)” value in the data set with Nphp1−/− mice (18 mg/kg i.p., vs vehicle, p<0.05 unpaired t-test) is “significantly prevented rhodopsin mislocalization”. The “electroretinogram a-wave amplitude of photoreceptor response” value with Nphp1−/− mice (18 mg/kg i.p., vs vehicle-treated Nphp1−/− mice) was “slight improvement in the amplitude of photoreceptor response”. Besides, the “stability in vivo (concentrations in plasma, kidney, testis, retina, vitreous humor)” value in data set [3] is listed as “more stable than taprenepag isopropyl”.

On to `O=C1CC[C@H](/C=C/[C@@H](O)C(F)(F)c2ccccc2)N1CCCCCCc1nnn[nH]1` [L902,688], for which, in data set [1] (prostanoid EP4 agonist, FIG. 17A), the effect on ciliogenesis result is “does not significantly affect ciliogenesis”.

As for `CCN(CC)C(C)CN1c2ccccc2Sc2ccccc21` (stereo not drawn) [ethopropazine], the “effect on ciliogenesis (percentage of ciliated cells) as compared with DMSO” value in data set [1] is listed as “did not have a significant effect on ciliogenesis”.

With `CN(C)CCC(c1ccccc1)c1ccccn1` (stereo not drawn) [pheniramine], the “effect on ciliogenesis (percentage of ciliated cells) as compared with DMSO” value in data set [1] was “did not have a significant effect on ciliogenesis”.
